# Legend:
# [1] = EP '025; cited from earlier work
# [2] = in vitro release rates of estriol prodrugs from intravaginal rings; format: physicochemical; conditions: for Burst Release d1 / Burst Release d2 / Average API release d3-d21: ring, API loading 5.0 %, core polymer EVA28/2.5 (E3: EVA26/4.0), 37°C; for Burst Release d1: day 1; for Burst Release d2: day 2; for Average API release d3-d21: days 3-21
# Procedure: The estriol prodrugs were processed via hot-melt extrusion and subsequent ring closure to intravaginal rings: […] The hot melt extrusion line for processing the estriol containing EVA28 powder consisted of an 18 mm twin screw extruder, equipped with a loss in weight feeder for dosing the drug containing premix into the extruder. Extrusion was performed at low throughputs of approx. 2 kg/h, the temperature profile of the extruder barrels was adjusted to yield a melt temperature of approx. 125° C. After leaving the die, the strands were directly conveyed through a water bath to obtain a fast cooling process and minimize potential strand deformation. As haul-off unit, a strand pelletizer without knives was used to pull and convey the strand accurately through all downstream sections, ensuring homogeneous strand diameters and a […] shape. […] The cross-sectional diameter of the co-extrudate was measured in-line with a laser system (3 laser heads). […] Alternatively, the ring closure was accomplished via an injection molding process equipment, equipped with a 4.0 mm mold (one or multiple cavities), using EVA28 placebo material as injection material. To determine the in vitro release rates, a rotational incubator, operated at 37±0.5° C., is used. The dissolution medium type, the dissolution medium volume and the rotational speed of the used incubator are selected to provide sink conditions.
# [3] = Caco-2 permeability (A-to-B); format: in vitro ADME; conditions: human; Caco-2, A-to-B, 120 minutes, dosing 5myM
# Procedure: (§1) Caco-2 cells (clone C2BBel) were obtained from American Culture Collection. Cell monolayers were grown to confluence on collagen-coated, microporous membranes in 12-well assay plates. The permeability assay buffer was Hank's balanced salt solution. The buffer in the receiving chamber also contained 1% bovine serum albumin. The dosing solution concentration was 5myMof test article in the assay buffer. Cell monolayers were dosed on the apical side (A-to-B) and incubated at 37° C. with 5% CO2 in a humidified incubator. Samples were taken from the donor and receiver chamber at 120 minutes. All samples were assayed by LC-MS/MS using electrospray ionization. The apparent permeability (Papp) were calculated as follows: […]
# (§2) With dCr/dt being the slope of the cumulative concentration in the recover compartment versus time in ny Ms^−1;
# (§3) Vr is the volume of the receiver compartment in cm^3
# (§4) A is the area of the insert (1.13 cm^2 for 12-well)
# [4] = Log P; format: physicochemical; conditions: Table 2
# Source text: Example 10: Determination of Log p and Permeability Values of Estriol Prodrugs
# [5] = Solubility in EVA by hot stage microscopy; format: physicochemical; conditions: for Solubility in EVA28/2.5 at 37° C. (via HSM): EVA28/2.5, hot stage microscopy
# Source text: Solubilities in EVA were estimated by hot stage microscopy.
# [6] = physchem; conditions: 37 °C, water, thermodynamic from solid
# Procedure: (§5) Solubilities were determined by shaking (24 hours) an excess of steroid in 20 ml of water/medium at 37° C. Following equilibrium, a portion was passed through a 0,22m-my filter and the steroid concentration in the filtrate was determined by high-performance liquid chromatography.
# [7] = test system: Caco-2 cells (clone C2BBel); assay: Caco-2 permeability (A-to-B); format: in vitro ADME; conditions: Caco-2
# Procedure: as §1, §2, §3, §4
# [8] = stated in discussion; cited from earlier work
# [9] = depending on the model applied; cited from earlier work
# [10] = vaginal or oral application; cited from earlier work
# [11] = Solubility in water/medium (shaking 24 hours, HPLC); conditions: 37 °C, thermodynamic from solid
# Procedure: as §5
# [12] = cited from earlier work
Compound,Burst Release d1 [2],Burst Release d2 [2],Average API release d3-d21 [2],"Papp A→B at 120 min, 5 µM [3]","recovery at 120 min, 5 µM [3]",logP [4],Solubility in EVA28/2.5 at 37° C. (via HSM) [5],solubility at 24 h [6],also measured
CC(=O)O[C@H]1CC[C@H]2[C@@H]3CCc4cc(O)ccc4[C@H]3CC[C@]12C [17-acetate derivative of estradiol],,,,,,,,,daily release rate compared to estradiol [1]: around 3 fold
"C[C@]12CCC3c4ccc(O)cc4CCC3C1C[C@@H](O)[C@@H]2OC(=O)C1CC1 (stereo partly drawn) [EC537, (16R,17R)-3,16-dihydroxy-7,8,9,11,12,13,14,15,16,17-decahydro-6H-cyclopenta α phenanthren-17-yl cyclopropanecarboxylate]",15521.1 µg,6229.4 µg,1785.5 µg/day,24 ×10⁻⁶ cm/s,26%,3.55,4-5 wt %,4.2 µg/mL,daily release rate compared to estriol-3-acetate [2]: around 10 fold
"CC(=O)Oc1ccc2c(c1)CCC1C2CC[C@@]2(C)C1C[C@@H](O)[C@@H]2O (stereo partly drawn) [EC5104, (8xi,9xi,14xi,16α,17β)-16,17-dihydroxyestra-1(10),2,4-trien-3-yl acetate]",2891.6 µg,1322.0 µg,548.1 µg/day,23.7 ×10⁻⁶ cm/s,64%,3.02,0.5 wt %,57.8 µg/mL,solubility in EVA compared to estriol [5]: comparable to the estriol solubility in EVA
"C[C@]12CCC3c4ccc(OC(=O)C5CC5)cc4CCC3C1C[C@@H](O)[C@@H]2O (stereo partly drawn) [EC5105, (8xi,9xi,14xi,16α,17β)-16,17-dihydroxyestra-1(10),2,4-trien-3-yl cyclopropanecarboxylate]",4301.1 µg,1369.8 µg,567.3 µg/day,1.76 ×10⁻⁶ cm/s,3%,3.38,0.5-2 wt %,4.9 µg/mL,"Caco-2 permeability, comparison in words [7]: very low permeability compared to the 17 analog"
"C[C@]12CCC3c4ccc(OC(=O)C5CC5)cc4CCC3C1C[C@@H](O)[C@@H]2OC(=O)C1CC1 (stereo partly drawn) [EC5106, 3,16α,17β-Trihydroxyestra-1,3,5(10)-triene 3,17-biscyclopropane carboxylate]",,,,11.4 ×10⁻⁶ cm/s,25%,3.99,,,
"C#C[C@]1(O)CC[C@H]2[C@@H]3CCc4cc(O)ccc4[C@H]3CC[C@@]21C [EE, ethinyl estradiol, reference compound]",,,,42.5 ×10⁻⁶ cm/s,59%,4.52,,,
"C[C@]12CC[C@@H]3c4ccc(O)cc4CC[C@H]3[C@@H]1CC[C@@H]2O [Example E2, estradiol, reference compound]",,,,,15%,4.13,,,log P [8]: 3.94
"C[C@]12CC[C@@H]3c4ccc(O)cc4CC[C@H]3[C@@H]1C[C@@H](O)[C@@H]2O [Example E3, Estriol]",665.1 µg,294.5 µg,119.4 µg/day,,,,0.5-1%,,"log P [8]: 2.81; reduction in activity compared to estradiol [9]: 10 to 30%; time after application after which no estriol plasma level above the limit could be determined [10]: 4 to 6 h; solubility at 24 h ([11]; water + 2% SLS, aqueous with cosolvent or surfactant or cyclodextrin): 465 µg/mL; solubility at 24 h ([11]; water): 58.4 µg/mL"
"CC(=O)Oc1ccc2c(c1)CC[C@@H]1[C@@H]2CC[C@]2(C)[C@@H](O)CC[C@@H]12 [estradiol-3-acetate, estradiol 3-acetate]",,,,,,,,,daily release rate compared to estradiol [1]: above 45 fold; solubility in silicone compared to estradiol ([12]; silicone): around 10 fold; solubility in water compared to estradiol ([12]; water): twofold higher

# — patent publication US20190328658A1, “ESTROGEN PRODRUGS AND METHODS OF ADMINISTERING ESTROGEN PRODRUGS” (Evestra, Inc., priority 2018, published 2019)
